Measurements published in patent publication US10196482B2, “Mixed alkyl terminated polyether dendrons” (BASF SE, priority 2014, dated 2019).
≈ marks a conversion by molar mass, not a printed value. One block for each compound: values may come before it.

Experiments:
[1] = Solubilization of actives in 3 wt-% polymer solution (high-throughput, UV/VIS); assay type: physicochemical
Method: Solubilization measurements were carried out with a highthroughput screening robot. This set up dosed 10 mg solid active and […] of the respective 3 wt-% liquid polymer solution (in CIPAC water D) into wells on a micro titer plate. After the addition of stirring bars and 24 hours incubation time the samples were filtrated via polypropylene filters in order to separate dissolved active and its solid form ated. The amount of solubilized active was determined via UV/VIS spectroscopy.

[2] = at 20° C.; cited from earlier work
[3] = 10 mg solid active, without polymer or in 3 wt-% polymer solution in CIPAC water D, 24 hours

Solubility of carbamazepine [1, 3]: 181 pmm
SMILES: NC(=O)N1c2ccccc2C=Cc2ccccc21 [carbamazepine]

Solubility of BAS 750 F [1, 3]: 15 pmm
SMILES: CC(O)(Cn1cncn1)c1ccc(Oc2ccc(Cl)cc2)cc1C(F)(F)F (centres unmarked) [BAS 750 F, 2-[4-(4-chlorophenoxy)-2-(trifluoromethyl)phenyl]-1-(1H-1,2,4-triazol-1-yl)propan-2-ol]

SMILES: N#Cc1nn(-c2c(Cl)cc(C(F)(F)F)cc2Cl)c(N)c1[S+]([O-])C(F)(F)F (centres unmarked) [Fipronil, fipronil]
Solubility of fipronil [1]: 12 pmm

Solubility of fluxapyroxad ([1]; 10 mg solid active, alone or in 3 wt-% polymer solution in CIPAC water D, 24 hours): 10 pmm
SMILES: Cn1cc(C(=O)Nc2ccccc2-c2cc(F)c(F)c(F)c2)c(C(F)F)n1 [fluxapyroxad]
water solubility [2]: 4 µg/mL (≈ 10.5 µM)
